{"source": "patent US5496935A", "about": "“2',3'-dideoxynucleoside pyrimidine compounds and carbocyclic analogs” (Max-Delbru/ ck-Centrum, priority 1994, dated 1996)", "key": {"[1]": {"system": "HIV-1 (HTLV IIIa)", "test": "Inhibition of the cytopathic effect of HIV on T lymphocyte cells (protection of MT-4 cells)", "format": "cell-based", "details": "for EC50: Human immunodeficiency virus 1, MT4, 50% protection of MT-4 cells against HIV-1 (HTLV IIIa), read-out: 50% antiviral dose (ED50)", "excerpt": "2. Inhibition of the cytopathic effect of HIV on T lymphocyte cells\n(§1) Under in vitro conditions, an infection of T lymphocytes with HIV leads to the death of the cells within a few days. The MT-4 cells, described by Harada et al. in Science 229, 563 (1985), were used in a test system (Matthes et al., Biochem. Biophys., Res. Commun. 153, 825 (1988)), to test to what extent the inventive nucleosides can nullify the cytocidal effect of HIV-1 (HTLV IIIa) on this T cell line. In addition, the antiproliferative effectiveness of the nucleosides investigated is listed and, moreover, as the concentration which decreases the proliferation of the MT-4 cells by 50% (CD50).\n(§2) Comparison of the antiviral and antiproliferative effectiveness\n(§3) of nucleoside analogies using MT-4 cells"}, "[2]": {"test": "Antiproliferative effect on MT-4 cells", "format": "cell-based, human", "details": "human, mt-4 cells", "excerpt": "as §1, with “(CD50). […]” for “(CD50).”\nas §2, §3"}, "[3]": {"system": "MT-4 cells", "test": "Antiproliferative effect on MT-4 cells", "format": "cell-based, human", "excerpt": "as §1, with “(CD50). […]” for “(CD50).”\nas §2, §3"}, "[4]": {"test": "In vitro cytotoxicity to cell cultures, REH", "format": "cell-based", "details": "human, reh cells; read-out: CD50, antiproliferative effect", "excerpt": "(§4) 3. In vitro cytotoxicity of 3'-fluoro-4-thiothymidine to cell cultures\n(§5) A series of further human cell lines was included in the investigation of the antiproliferative effect of 3'-fluoro-4-thiothymidine and the following CD50 were found: […]"}, "[5]": {"test": "In vitro cytotoxicity to cell cultures, HELFI", "format": "cell-based", "details": "human, helfi lung fibroblasts; read-out: CD50, antiproliferative effect", "excerpt": "as §4, §5"}, "[6]": {"test": "In vitro cytotoxicity to cell cultures, H-8", "format": "cell-based", "details": "human, h-8 cells; read-out: CD50, antiproliferative effect", "excerpt": "as §4, §5"}, "[7]": {"test": "In vitro cytotoxicity to cell cultures, Molt-4", "format": "cell-based", "details": "human, molt-4 cells; read-out: CD50, antiproliferative effect", "excerpt": "as §4, §5"}, "[8]": {"system": "colony-forming cells of the bone marrow of the mouse (GM-CFU)", "test": "Growth inhibition of colony-forming cells of the bone marrow (GM-CFU)", "format": "cell-based", "details": "concentrations up to 100 micromoles/L"}, "[9]": {"system": "AIDS patients", "details": "cited from earlier work"}, "[10]": {"target": "T1, HIV-associated reverse transcriptase (HIV-RT) (Human immunodeficiency virus type 1 group M subtype B, UniProt P04585)", "T1 construct": "HIV-associated reverse transcriptase (HIV-RT)", "test": "Inhibition of the HIV-associated reverse transcriptase (HIV-RT)", "format": "biochemical", "procedure": "1. Selective inhibition of the HIV-associated reverse transcriptase (HIV-RT) by 3'-fluoro-4-thiothymidine-triphosphate\n(§6) For these investigations, the effect of the compound on the activity of HIV-RT as well as on the cellular DNA polymerase was determined using the methods described by Matthes et al., in Biochem. Biophys. Res. Commun. 148, 78 (1987). Different concentrations of 3'-fluoro-4-thiothymidine triphosphate were added to the enzyme preparations. The concentrations of 3'-fluoro-4-thiothymidine triphosphate, which inhibit the polymerases investigated to the extent of 50% (ID50), were determined from the inhibition curves obtained. […] Accordingly 3'-fluoro-4-thiothymidine triphosphate inhibits the HIV-RT 700 times more effectively than the cellular DNA polymerase and thus has a largely selective effect on the HIV replication."}, "[11]": {"target": "T2, DNA polymerase (Homo sapiens, UniProt P09884)", "T2 sequence (P09884 1-1462)": "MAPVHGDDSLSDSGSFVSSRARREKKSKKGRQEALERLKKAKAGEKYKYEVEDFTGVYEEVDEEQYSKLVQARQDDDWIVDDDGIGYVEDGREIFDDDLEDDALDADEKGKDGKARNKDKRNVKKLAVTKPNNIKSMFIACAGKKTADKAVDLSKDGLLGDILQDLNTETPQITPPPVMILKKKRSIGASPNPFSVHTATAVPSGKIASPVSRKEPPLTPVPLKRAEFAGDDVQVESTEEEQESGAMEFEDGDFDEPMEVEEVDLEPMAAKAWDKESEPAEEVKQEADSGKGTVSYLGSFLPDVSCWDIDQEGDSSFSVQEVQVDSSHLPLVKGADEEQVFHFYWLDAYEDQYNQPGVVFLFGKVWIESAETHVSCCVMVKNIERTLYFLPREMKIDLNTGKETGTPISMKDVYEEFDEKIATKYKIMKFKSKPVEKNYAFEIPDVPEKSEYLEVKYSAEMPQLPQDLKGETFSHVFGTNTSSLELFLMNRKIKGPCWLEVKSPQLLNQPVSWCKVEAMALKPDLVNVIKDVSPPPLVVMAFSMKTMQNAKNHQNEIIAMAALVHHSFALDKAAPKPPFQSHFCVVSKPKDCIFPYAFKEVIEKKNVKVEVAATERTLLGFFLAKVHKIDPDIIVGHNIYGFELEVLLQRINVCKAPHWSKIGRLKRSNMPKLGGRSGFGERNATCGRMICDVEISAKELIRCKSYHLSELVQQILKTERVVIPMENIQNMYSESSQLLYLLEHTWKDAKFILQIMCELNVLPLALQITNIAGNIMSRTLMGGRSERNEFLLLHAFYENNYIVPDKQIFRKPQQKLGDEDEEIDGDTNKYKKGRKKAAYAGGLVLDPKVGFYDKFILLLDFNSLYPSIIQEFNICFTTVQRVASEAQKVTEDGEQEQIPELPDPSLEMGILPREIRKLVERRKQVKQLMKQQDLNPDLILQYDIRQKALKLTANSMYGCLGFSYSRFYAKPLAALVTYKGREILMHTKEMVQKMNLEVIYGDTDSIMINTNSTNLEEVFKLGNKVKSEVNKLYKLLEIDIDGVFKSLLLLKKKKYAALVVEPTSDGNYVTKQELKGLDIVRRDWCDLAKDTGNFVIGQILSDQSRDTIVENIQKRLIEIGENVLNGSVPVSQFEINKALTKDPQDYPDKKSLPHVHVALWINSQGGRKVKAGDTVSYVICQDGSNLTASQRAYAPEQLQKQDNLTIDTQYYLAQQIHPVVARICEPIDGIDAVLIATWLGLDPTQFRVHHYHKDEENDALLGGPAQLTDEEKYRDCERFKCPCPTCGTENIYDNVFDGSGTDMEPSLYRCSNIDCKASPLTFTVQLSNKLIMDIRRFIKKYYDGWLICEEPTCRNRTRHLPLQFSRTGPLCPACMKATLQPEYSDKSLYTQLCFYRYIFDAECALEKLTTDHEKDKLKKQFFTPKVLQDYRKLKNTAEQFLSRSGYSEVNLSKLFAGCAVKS", "test": "Inhibition of cellular DNA polymerase (enzyme mainly responsible for cellular replication)", "format": "biochemical", "details": "read-out: ID50 (concentration inhibiting the polymerase to the extent of 50%), DNA polymerase", "procedure": "as §6"}, "[12]": {"target": "DNA polymerase β (Homo sapiens, UniProt P06746)", "test": "Inhibition of DNA polymerase β (cellular DNA repair enzyme)", "format": "biochemical", "details": "read-out: ID50 (concentration inhibiting the polymerase to the extent of 50%), DNA polymerase β", "procedure": "as §6"}, "[13]": {"details": "AIDS patients with Pneumocystis carinii pneumonia"}}, "data": [{"smiles": "O=c1nc(NO)ccn1[C@H]1C[C@H](F)[C@@H](CO)O1", "note": "[1-(2,3-Dideoxy-3-fluoro-β-D-glycero-ribofuranosyl)-4-hydroxylamino-(1H)-pyrimidine-2-one]", "values": [{"measurement": "EC50", "setting": "[1]", "result": 100, "unit": "µM"}, {"measurement": "CC50", "setting": "[2]", "result": 100, "unit": "µM"}]}, {"smiles": "Cc1cn([C@H]2C[C@H](F)[C@@H](CO)O2)c(=O)nc1NO", "note": "[1-(2,3-Dideoxy-3-fluoro-β-D-ribofuranosyl)-4-hydroxylamino-5-methyl-(1H)-pyrimidine-2-one]", "values": [{"measurement": "EC50", "setting": "[1]", "result": 100, "unit": "µM"}, {"measurement": "CC50", "setting": "[2]", "result": 300, "unit": "µM"}]}, {"smiles": "CSc1nc(=O)n([C@H]2C[C@H](F)[C@@H](CO)O2)cc1C", "note": "[1-(2,3-Dideoxy-3-fluoro-β-D-ribofuranosyl)-4-methylmercapto-5-methyl-(1H)-pyrimidine-2-one]", "values": [{"measurement": "EC50", "setting": "[1]", "result": "> 1000", "unit": "µM"}, {"measurement": "CC50", "setting": "[2]", "result": "> 1000", "unit": "µM"}]}, {"smiles": "Cc1cn([C@H]2C[C@H](F)[C@@H](CO)O2)c(=O)[nH]c1=S", "note": "[1-(2,3-Dideoxy-3-fluoro-β-D-ribofuranosyl)-4-thiothymine]", "values": [{"measurement": "inhibition of HIV replication (summary in words)", "setting": "[1]", "result": "effective inhibitor of HIV replication"}, {"measurement": "EC50", "setting": "[1]", "result": 1.8, "unit": "µM"}, {"measurement": "CC50", "setting": "[2]", "result": 480, "unit": "µM"}, {"measurement": "effect on cell proliferation (in words)", "setting": "[3]; MT-4 cells", "result": "hardly any effect on the cell proliferation"}, {"measurement": "cytotoxicity (summary in words)", "setting": "[3]; summary of the cell tests", "result": "very slight cytotoxicity"}, {"measurement": "CC50", "setting": "[4]", "result": 500, "unit": "µM"}, {"measurement": "CC50", "setting": "[5]", "result": 700, "unit": "µM"}, {"measurement": "CC50", "setting": "[6]", "result": "≥ 800", "unit": "µM"}, {"measurement": "CC50", "setting": "[7]", "result": "≥ 1000", "unit": "µM"}, {"measurement": "growth-inhibiting effect on colony-forming cells of the bone marrow", "setting": "[8]", "result": "no growth-inhibiting effect whatsoever"}]}, {"smiles": "O=c1[nH]c(=S)ccn1[C@H]1C[C@H](F)[C@@H](CO)O1", "note": "[1-(2,3-Dideoxy-3-fluoro-β-D-ribofuranosyl)-4-thiouracil]", "values": [{"measurement": "EC50", "setting": "[1]", "result": 15, "unit": "µM"}, {"measurement": "CC50", "setting": "[2]", "result": 150, "unit": "µM"}]}, {"smiles": "Cc1cn([C@H]2C=C[C@@H](CO)O2)c(=O)[nH]c1=S", "note": "[1-(2,3-Dideoxy-β-D-glycero-pent-2-enofuranosyl)-4-thiothymine]", "values": [{"measurement": "EC50", "setting": "[1]", "result": 0.85, "unit": "µM"}, {"measurement": "CC50", "setting": "[2]", "result": 350, "unit": "µM"}]}, {"smiles": "CSc1ccn([C@H]2C[C@H](F)[C@@H](CO)O2)c(=O)n1", "note": "[1-(2,3-dideoxy-3-fluoro-β-D-ribofuranosyl)-4-methylmercapto-pyrimidine-2-one]", "values": [{"measurement": "EC50", "setting": "[1]", "result": 12, "unit": "µM"}, {"measurement": "CC50", "setting": "[2]", "result": 50, "unit": "µM"}]}, {"smiles": "Cc1cnc(=O)n([C@H]2C[C@H](F)[C@@H](CO)O2)c1", "note": "[1-(2,3-dideoxy-3-fluoro-β-D-ribofuranosyl)-5-methyl-pyrimidine-2-one]", "values": [{"measurement": "EC50", "setting": "[1]", "result": 12, "unit": "µM"}, {"measurement": "CC50", "setting": "[2]", "result": "> 400", "unit": "µM"}]}, {"smiles": "O=c1ncccn1[C@H]1C[C@H](F)[C@@H](CO)O1", "note": "[1-(2,3-dideoxy-3-fluoro-β-D-ribofuranosyl)-pyrimidine-2-one]", "values": [{"measurement": "EC50", "setting": "[1]", "result": 30, "unit": "µM"}, {"measurement": "CC50", "setting": "[2]", "result": "> 800", "unit": "µM"}]}, {"smiles": "Cc1cn([C@H]2C[C@H](N=[N+]=[N-])[C@@H](CO)O2)c(=O)[nH]c1=O", "note": "[3'-azidothymidine]", "values": [{"measurement": "clinical and neurological findings (in words)", "setting": "[9]; [13]", "result": "improvements in clinical and neurological findings"}, {"measurement": "immunological functions (in words)", "setting": "[9]; [13]", "result": "occasional restoration of certain immunological functions"}, {"measurement": "life prolonging effects (in words)", "setting": "[9]; [13]", "result": "unambiguous life prolonging effects"}, {"measurement": "patients in whom toxic side effects on the bone marrow make blood transfusions necessary", "setting": "[9]; AIDS patients", "result": "about 50%"}]}, {"smiles": "Cc1cn([C@H]2C[C@H](F)[C@@H](COP(=O)(O)OP(=O)(O)OP(=O)(O)O)O2)c(=O)[nH]c1=S", "note": "[3'-fluoro-4-thiothymidine triphosphate, 1-(2,3-Dideoxy-3-fluoro-β-D-ribofuranosyl)-4-thiothymine-5'-triphosphate]", "values": [{"measurement": "inhibits the HIV-RT times more effectively than the cellular DNA polymerase", "setting": "[10]; HIV-RT versus cellular DNA polymerase", "result": 700, "unit": "times"}, {"measurement": "IC50", "setting": "[10]; HIV-RT, read-out: ID50 (concentration inhibiting the polymerase to the extent of 50%), HIV-RT", "result": 0.3, "unit": "µM"}, {"measurement": "IC50", "setting": "[11]", "result": 140, "unit": "µM"}, {"measurement": "IC50", "setting": "[12]", "result": 7, "unit": "µM"}]}, {"smiles": "Cc1ccc(C(=O)Nc2ccc(S(=O)(=O)O)c3cc(S(=O)(=O)O)cc(S(=O)(=O)O)c23)cc1NC(=O)c1cccc(NC(=O)Nc2cccc(C(=O)Nc3cc(C(=O)Nc4ccc(S(=O)(=O)O)c5cc(S(=O)(=O)O)cc(S(=O)(=O)O)c45)ccc3C)c2)c1", "note": "[Suranim]", "values": [{"measurement": "tolerance and effectiveness (in words)", "setting": "[9]; clinically tested", "result": "have not yet attained the necessary tolerance and the hoped-for effectiveness"}]}]}
